Test results as given in patent US20200329698A1, “COMPOSITIONS FOR ORGAN GRAFT PRESERVATION AND METHODS OF USE” (Nobilis Therapeutics, Inc., priority 2019, published 2020).

Experiments:
[1] = test system: renal grafts from live donor; settings: preserving solution saturated with argon; cited from earlier work
[2] = test system: Fischer rats renal grafts from cardiac arrest donation; test: DCD renal graft preservation with xenon or argon with or without dexmedetomidine, then transplantation; assay type: in vivo, rat; settings: UW saturated with 70% gas, with or without Dex 0.1 nM; day 8 after transplantation
Experimental: Briefly, after intravenous heparinization (300 U) in 1 ml saline via the penile vein under 2% isoflurane anaesthesia, cardiac arrest was induced by cervical dislocation (schedule 1 killing). The cessation of the heart beat was observed within 3-5 minutes and donor animals were kept for 40 minutes on a 37° C. pad.
This protocol was obtained from our pilot studies and the both graft injury and a therapeutic window can be achieved. The preserving solution was saturated with 70% nitrogen, xenon or argon gas, combined with or without dexmedetomidine 0.1 nM [32]. […] Macrophage infiltration and renal fibrosis were attenuated by the treatments on day 16 after surgery (FIGS. 12A-12D).
With respect to FIGS. 10A-10D, Fischer rats renal grafts from cardiac arrest donation were stored with UW preserving solution at 4° C., saturated with nitrogen or xenon or argon gas (70% N2 or Xe or Ar and 5% CO2 balanced with O2 supplemented with Dex), machine perfused for 4 hours and stored until 24 hours. Normal kidney graft serves as naive control (NC), grafts treated with preserving solution only served as sham, and the grafts were then transplanted into Lewis recipient and finally harvested day 8 after transplantation. (FIG. 10A) Renal morphology were assessed by H and E staining (n=4-6) and (FIG. 10B) evaluated by the injury scoring system. (FIG. 10C) TUNEL staining of renal tubules in renal cortex. […]

[3] = test system: ex vivo renal grafts from brain death or cardiac arrest donors; test: Rat hypothermic machine perfusion model; settings: exposure of ex vivo grafts prior to engraftment
brain = settings: 70% argon; cited from earlier work
[4] = test system: Lewis rat lung grafts extracted after cardiac death; test: DCD lung graft stored in Dex-saturated UW after donor treatment with Nrf-2 siRNA or atipamezole; settings: given to donor before extraction
Experimental: Nrf-2 siRNA or scrambled siRNAs (negative control) (QIAGEN®) were dissolved in siRNA suspension buffer and further diluted in RNase-free PBS before use. siRNA targeting rat Nrf-2 (sc-37030, SANTA CRUZ BIOTECHNOLOGY®, USA) was administered through hydrodynamic tail vein injection. Nrf-2 or scrambled siRNA ([…] in 10 ml of PBS) was rapidly injected (within 30 s) via a tail vein under anaesthesia and allow to recover for 24 h before the experiment. Atipamezole (α2-adrenergic antagonist, SIGMA-ALDRICH®, St. Louis, Mo., USA, 250 μg/kg, i.p.) was administered 10 minutes graft extraction.
In order to further investigate the mechanisms underlying the protective effects of dexmedetomidine on lung grafts, Nrf-2 siRNA and atipamezole treatment was administered donor before lung grafts extraction. The grafts were subsequently stored in Dex-saturated UW solution. TLR-4 and RIP3 immunofluorescent labelling was performed in lung grafts, with and without Nrf-2 siRNA (FIG. 9A), and with and without atipamezole treatment (FIG. 9B). […] 3-nitrotyrosine and 4-hydroxynonenal immunofluorescent labelling was performed in lung alveolar cells at CI 16 h, with and without Nrf-2 siRNA or with and without atipamezole treatment (FIGS. 9E and 9F) at CI 16 h. […] Together, these findings indicate that upregulation of the Nrf-2 and α2 adrenergic pathways are both critical to the protective effects of Dex on lung grafts. […] With respect to FIGS. 9A-9K, Lewis rat lung grafts were extracted after cardiac death and stored in 4° C. UW solution saturated with Dex (0.1 nM) or without Dex (Vehicle) for 16 hours (lung graft cold ischemia CIO 16 hr). Nrf-2 siRNA or atipamezole was given to the donor before graft extracting. Dual labelling of Rip-3 (red) and TLR-4 (green) in lung tissue after (FIG. 9A) SiRNA treatment or (FIG. 9B) atipamezole. Fluorescent intensity of (FIG. 9C) RIPK3 and (FIG. 9D) TLR-4 in lung tissue. The expression of 3-nitrotyrosine and 4-hydroxynonenal was assessed with immunofluorescent labelling after (FIG. 9E) SiRNA treatment or (FIG. 9F) Atipamezole. Fluorescent intensity of (FIG. 9G) 3-nitrotyrosine and (FIG. 9H) 4-hydroxynonenal. Nuclei were counterstained with 4′,6-diamidino-2-phenylindole (DAPI) (blue). (FIGS. 9I and 9K) Histology (haematoxylin and eosin staining) of the lung graft and injury score. (FIG. 9J) HMGB-1 in lung graft tissue, were assessed by ELISA. Scale bar: 50 μm. […] NC: naïve control, rCI: renal graft cold ischemia. HMGB, high mobility group box 1 protein; CI, cold ischaemia; NC, naïve control; TLR-4, toll-like receptor 4.

[5] = test system: isografts, weak immune-allografts and strong immuno-allografts; settings: xenon to living donor before graft retrieval or to recipient after engraftment; cited from earlier work
ex-vivo rat kidney = settings: cited from earlier work
kidney = settings: in vivo; cited from earlier work
[6] = ice-cold Soltran saturated with 70% Xe, 24 hrs, vs 70% N2

[Ar] [argon]
preservation of renal grafts against hypothermic-ischemic injury [1]: superior in preserving renal grafts
renal architecture during prolonged cold preservation (H&E injury score, TUNEL) [2]: preserved the renal architrave
organ graft injury, histologically and functionally [3]: prevent organ graft injury
neuroprotection (brain): neuro-protective

CCC1(c2cnc[nH]2)Cc2ccccc2C1 [atipamezole, Atipamezole]
3-nitrotyrosine expression (fluorescent intensity) ([4]; CI 16 h): significant increase
4-hydroxynonenal expression (fluorescent intensity) ([4]; CI 16 h): significant increase
HMGB-1 expression in lung graft tissue (ELISA) ([4]; CI 16 hr): significantly increased
expression of RIP3 (fluorescent intensity) ([4]; CI 16 hr): enhanced expression
lung injury scoring ([4]; CI 16 hr): significant increase
lung morphology (H&E) ([4]; CI 16 hr): deteriorated significantly
expression of TLR-4 (fluorescent intensity) ([4]; CI 16 hr, p<0.01): enhanced expression

[Xe] [xenon]
renal architecture during prolonged cold preservation (H&E injury score, TUNEL) [2]: preserved the renal architrave
early graft injury [5]: protected against early graft injury
graft survival [5]: prolonged graft survival
organ graft injury, histologically and functionally [3]: prevent organ graft injury
delayed graft function (ex-vivo rat kidney; after engraftment): reduced
renal inflammation (ex-vivo rat kidney; after engraftment): reduced
fibrosis (ex-vivo rat kidney; day 8 after surgery): significantly reduced
macrophage infiltration (ex-vivo rat kidney; day 8 after surgery): significantly reduced
expression of Bcl-2 (ex-vivo rat kidney; [6]): enhanced expression
expression of HSP-70 (ex-vivo rat kidney; [6]): enhanced expression
tubular cell death (ex-vivo rat kidney; twenty-four hrs after engraftment): significantly decreased
morphological structure of the ex-vivo rat kidney (ex-vivo rat kidney; xenon-containing Soltran solution): well preserved
kidney warm ischemic injury (kidney): protect against kidney warm ischemic injury
